Reference: patent publication US9828406B2, “Antitumor agent” (KINKI UNIVERSITY, priority 2011, dated 2017)
Each block holds one compound with its values, some of them ahead of it.

Assays:
[1] = test system: normal embryonic kidney-derived cells (HEK293F); experiment: WST-8 cell proliferation assay, normal embryonic kidney-derived cells; type: cell-based; details: cultured for 24 hours, WST-8 assay, DMSO control = 100%
Protocol: (§1) For cell culture, RPMI1640 medium (manufactured by Gibco Co., Ltd.) and DMEM medium (manufactured by Gibco Co., Ltd.) were mixed in a ratio of 1:1 and supplied 7% FBS (fetal bovine serum, manufactured by Nichirei Biosciences Inc.) and antibiotic mixture (mixture of penicillin, streptomycin, amphotericin B Mix, 100-fold concentrated solution (Nakarai Co.). Trypsinized cells were diluted to 1×10^5 cells/ml and seeded at 400 μl/well in 48-well dishes. Immediately after seeding, the test compound (dissolved in DMSO) was added to a final concentration of 0.5%, cultured for 24 hours in a CO2 incubator under an atmosphere of 5% of CO2, at a temperature of 36° C. to 37° C. After culturing, WST-8 assay was performed. An activity value of DMSO control was set to 100%, and the activities of each cell to which the test compound was added were investigated.
(§2) To 400 μl of cells culture, 18 μl of Cell Count Reagent SF (manufactured by Nacalai Inc.) was added. After being cultured for 2 to 3 hours (in a case where activity is low, cultured for 19 hours) under an atmosphere of 5% of CO2, at a temperature of 36° C. to 37° C., the broth was stirred, and the amount of formazan produced in the broth was calculated from absorbance at a wavelength of 450 nm. Using a measured value at a wavelength of 600 nm as a control, OD450-OD600 was set to an activity value.

[2] = test system: gastric cancer cells (MKN45); experiment: WST-8 cell proliferation assay, gastric cancer cells; type: cell-based, human; details: MKN45, cultured for 24 hours, WST-8 assay, DMSO control = 100%
Protocol: as §1, §2

[3] = test system: acute lymphoblastic leukemia T-cells (Molt-4); experiment: WST-8 cell proliferation assay, acute lymphoblastic leukemia T-cells; type: cell-based, human; details: Molt-4, cultured for 24 hours, WST-8 assay, DMSO control = 100%
Protocol: as §1
as §2, with “value. […]” for “value.”

[4] = test system: renal cancer cells (ACHN); experiment: Combination with paclitaxel, survival rate of tumor cells (WST-8); type: cell-based, human; details: 29 nM paclitaxel alone
Protocol: as §1, with “After culturing, WST-8 assay was performed. An activity value of DMSO control was set to 100%, and the activities of each cell to which the test compound was added were investigated.” left out
as §2, with “value. […]” for “value.”
A survival rate of the tumor cells was calculated, in the same manner as in Example 4 except that 5 μM of the glycoside compound and 29 nM of paclitaxel were added to the medium immediately after seeding the tumor cells.

[5] = test system: cervical cancer cells (HeLa); experiment: Combination with cisplatin, survival rate of tumor cells (WST-8); type: cell-based, human
Protocol: as §1, with “After culturing, WST-8 assay was performed. An activity value of DMSO control was set to 100%, and the activities of each cell to which the test compound was added were investigated.” left out
as §2, with “value. […]” for “value.”
The survival rate of the tumor cells was calculated, in the same manner as in Example 4 except that 15 μM of the glycoside compound and 333 μM of cisplatin were added to the medium immediately after seeding the tumor cells. […]

[6] = test system: urinary bladder cancer cells (T24); experiment: Combination with doxorubicin, survival rate of tumor cells (WST-8); type: cell-based, human; details: T24, 10 μM doxorubicin alone
Protocol: as §1
as §2, with “value. […]” for “value.”

IC50 [2]: 16 µM
IC50 [3]: 8.1 µM
Structure (SMILES): CCCCCCCC(=O)O[C@@H]1[C@H](OC[C@@H](O)[C@@H](O)[C@H](O)[C@H](O)[C@@H](O)CO)O[C@H](COC(=O)CCCCC)[C@@H](OC(=O)CCCCC)[C@@H]1OC(=O)CCCCC [Preparation Example 24, D-glycero-D-galactoheptitol-1-yl 3,4,6-tri-O-hexanoyl-2-O-octanoyl-β-D-mannopyranoside]
IC50 [1]: 21.8 µM

Structure (SMILES): CC(=O)O[C@H]1C(=O)[C@@]2(C)[C@H]([C@H](OC(=O)c3ccccc3)[C@]3(O)C[C@H](OC(=O)[C@H](O)[C@@H](NC(=O)c4ccccc4)c4ccccc4)C(C)=C1C3(C)C)[C@]1(OC(C)=O)CO[C@@H]1C[C@@H]2O [paclitaxel]
survival rate of the tumor cells [4]: 63.8%

Structure (SMILES): N.N.[Cl][Pt][Cl] [cisplatin]
Survival Rate after 19 Hours ([5]; 42 μM cisplatin alone, WST-8 incubated for 19 hours): 106.8%
Survival Rate after 2 Hours ([5]; 333 μM cisplatin alone, WST-8 incubated for 2 hours): 58.8%

Structure (SMILES): COc1cccc2c1C(=O)c1c(O)c3c(c(O)c1C2=O)C[C@@](O)(C(=O)CO)C[C@@H]3O[C@H]1C[C@H](N)[C@H](O)[C@H](C)O1 [doxorubicin]
survival rate of the tumor cells [6]: 57.3%
